Test results reported in ChEMBL document CHEMBL5376006, “Discovery of a Hidden Pocket beneath the NES Groove by Novel Noncovalent CRM1 Inhibitors” (J Med Chem, 2023).
The source made the active and inactive calls. No cut-off for these calls is given here.

Legend:
Exportin-1 [1] = molecular target: T1, Exportin-1 (Homo sapiens, UniProt O14980); assay: Inhibition of CRM1 (unknown origin) binding to GST-tagged NES PKI at 100 uM incubated for 2 hrs in presence of DTT by Coomassie brilliant blue staining based pull-down assay
T1 sequence (O14980 whole entry): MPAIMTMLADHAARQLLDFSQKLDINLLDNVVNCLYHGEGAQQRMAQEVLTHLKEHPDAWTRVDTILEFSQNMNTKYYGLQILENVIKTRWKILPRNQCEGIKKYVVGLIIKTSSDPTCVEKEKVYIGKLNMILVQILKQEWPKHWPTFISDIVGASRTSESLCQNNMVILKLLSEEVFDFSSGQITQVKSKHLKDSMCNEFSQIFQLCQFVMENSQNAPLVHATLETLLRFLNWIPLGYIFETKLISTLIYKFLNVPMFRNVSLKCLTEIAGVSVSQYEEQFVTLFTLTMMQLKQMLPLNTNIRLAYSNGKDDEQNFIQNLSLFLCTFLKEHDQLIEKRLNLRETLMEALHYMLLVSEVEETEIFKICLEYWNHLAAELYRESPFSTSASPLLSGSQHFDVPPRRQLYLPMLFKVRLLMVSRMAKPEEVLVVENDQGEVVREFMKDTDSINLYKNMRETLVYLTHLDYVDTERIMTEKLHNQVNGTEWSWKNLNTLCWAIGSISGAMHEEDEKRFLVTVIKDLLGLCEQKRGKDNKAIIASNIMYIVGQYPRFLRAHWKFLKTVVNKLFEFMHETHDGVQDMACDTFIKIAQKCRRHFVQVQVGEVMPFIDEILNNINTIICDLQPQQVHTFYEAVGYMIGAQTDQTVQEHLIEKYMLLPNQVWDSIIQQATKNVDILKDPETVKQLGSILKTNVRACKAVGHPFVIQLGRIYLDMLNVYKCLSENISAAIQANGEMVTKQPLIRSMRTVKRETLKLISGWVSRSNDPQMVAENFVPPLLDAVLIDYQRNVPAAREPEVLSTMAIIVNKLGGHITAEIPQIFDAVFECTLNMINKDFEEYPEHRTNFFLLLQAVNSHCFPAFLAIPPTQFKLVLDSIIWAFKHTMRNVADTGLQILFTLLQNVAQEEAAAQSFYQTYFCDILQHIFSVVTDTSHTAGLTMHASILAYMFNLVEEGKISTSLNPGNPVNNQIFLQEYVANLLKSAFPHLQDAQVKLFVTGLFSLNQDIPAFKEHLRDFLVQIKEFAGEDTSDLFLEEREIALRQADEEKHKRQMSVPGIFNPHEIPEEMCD

Exportin-1 [2] = molecular target: T1, Exportin-1; assay: Inhibition of CRM1 (unknown origin) binding to GST-tagged NES PKI assessed as CRM1/NES band ratio incubated for 1.5 hrs by Coomassie brilliant blue staining based pull-down assay (reference value: 1.00); design: concentration or dose not given beside the values
Exportin-1 [3] = molecular target: T1, Exportin-1; assay: Binding affinity to CRM1 (unknown origin) assessed as inhibition of CRM1 binding to IAF-conjugated NES PKI by measuring dissociation constant in the presence of RanGTP by competitive MST analysis
Exportin-1 [4] = molecular target: T1, Exportin-1; assay: Inhibition of GFP-fused CRM1 cargo nuclear export in human HeLa cells at 200 uM incubated for 4 hrs by confocal microscopic analysis; format: cell-based
Exportin-1 [5] = molecular target: T1, Exportin-1; assay: Inhibition of CRM1 (unknown origin) binding to GST-tagged NES PKI at 100 uM incubated for 1.5 hrs by Coomassie brilliant blue staining based pull-down assay
[6] = Cytotoxicity against HEK293T cells assessed as inhibition of cell growth incubated for 72 hrs by SRB assay; format: toxicity, cell-based, HEK-293T; conditions: human
HeLa [7] = assay: Antiproliferative activity against human HeLa cells assessed as inhibition of cell growth incubated for 72 hrs by SRB assay; format: functional, cell-based
MOLT-4 = assay: Antiproliferative activity against human MOLT-4 cells assessed as inhibition of cell growth incubated for 72 hrs by CellTiter Glo assay; format: functional, cell-based; conditions: MOLT-4, 72 h, pooled result: one value given for 6 cell lines, strains, targets or settings
Exportin-1 [8] = molecular target: T1, Exportin-1; assay: Covalent inhibition of CRM1 (unknown origin) binding to GST-tagged NES PKI at 20 uM incubated for 2 hrs in presence of DTT by Coomassie brilliant blue staining based pull-down assay
A549 [9] = assay: Antiproliferative activity against human A549 cells assessed as inhibition of cell growth at 20 uM incubated for 72 hrs by SRB assay; format: functional, cell-based
HeLa [10] = assay: Antiproliferative activity against human HeLa cells assessed as inhibition of cell growth at 20 uM incubated for 72 hrs by SRB assay; format: functional, cell-based
OVCAR-8 = assay: Antiproliferative activity against human OVCAR-8 cells assessed as inhibition of cell growth at 20 uM incubated for 72 hrs by SRB assay; format: functional, cell-based
[11] = test system: Exportin-1 (Homo sapiens), O14980 [C528S]; assay: Inhibition of human CRM1 C528S mutant nuclear export transfected in human MCF7 cells at 50 uM incubated for 4 hrs by confocal microscopic analysis; format: cell-based
Chain of Exportin-1 (Homo sapiens), O14980 [C528S] (O14980 whole entry C528S): as the sequence (O14980 whole entry) above, with C528S counted along it

MCF7 = assay: Antiproliferative activity against human MCF7 cells assessed as inhibition of cell growth at 20 uM incubated for 72 hrs by SRB assay; format: functional, cell-based
HuCCT-1 = assay: Antiproliferative activity against human HuCCT-1 cells assessed as inhibition of cell growth at 20 uM incubated for 72 hrs by SRB assay; format: functional, cell-based
Ishikawa = assay: Antiproliferative activity against human Ishikawa cells assessed as inhibition of cell growth at 20 uM incubated for 72 hrs by SRB assay; format: functional, cell-based
Exportin-1 [12] = molecular target: T1, Exportin-1; assay: Inhibition of CRM1 cargo nuclear export in human A549 cells at 50 uM incubated for 4 hrs by confocal microscopic analysis; format: cell-based
HepG2 = assay: Antiproliferative activity against human HepG2 cells assessed as inhibition of cell growth at 20 uM incubated for 72 hrs by SRB assay; format: functional, cell-based
Exportin-1 [13] = molecular target: T1, Exportin-1; assay: Inhibition of CRM1 cargo nuclear export in human MCF7 cells at 50 uM incubated for 4 hrs by confocal microscopic analysis; format: cell-based
MDA-MB-453 = assay: Antiproliferative activity against human MDA-MB-453 cells assessed as inhibition of cell growth at 20 uM incubated for 72 hrs by SRB assay; format: functional, cell-based
A549 [14] = assay: Induction of apoptosis in human A549 cells at 50 uM incubated for 18 hrs by Annexin V-FITC/PI staining based flow cytometric analysis; format: functional, cell-based
A549 [15] = assay: Induction of apoptosis in human A549 cells assessed as activation of phosphorylated JNK at 50 uM incubated for 18 hrs by Western blot analysis; format: functional, cell-based
Exportin-1 [16] = molecular target: T1, Exportin-1; assay: Binding affinity to CRM1 in human HeLa assessed as thermal stabilization at 20 uM incubated at 60 to 84 degreeC for 3 mins by CETSA based Western blot analysis; format: cell-based
A549 [17] = assay: Inhibition of colony formation in human A549 cells at 40 uM incubated for 48 hrs by crystal violet staining based analysis relative to control; format: functional
A549 [18] = assay: Inhibition of colony formation in human A549 cells at 20 uM incubated for 48 hrs by crystal violet staining based analysis; format: functional, cell-based
[19] = Solubility of the compound in water; format: physicochemical
A2780 = assay: Antiproliferative activity against human A2780 cells assessed as inhibition of cell growth at 20 uM incubated for 72 hrs by SRB assay; format: functional, cell-based
A549 [20] = assay: Induction of apoptosis in human A549 cells assessed as caspase-3 cleavage at 50 uM incubated for 18 hrs by Western blot analysis; format: functional, cell-based
Exportin-1 [21] = molecular target: T1, Exportin-1; assay: Inhibition of CRM1 cargo nuclear export in digitonin-permeabilized human HeLa cells at 50 uM incubated for 4 hrs by confocal microscopic analysis; format: cell-based
A549 [22] = assay: Induction of apoptosis in human A549 cells assessed as PARP-1 cleavage at 50 uM incubated for 18 hrs by Western blot analysis; format: functional, cell-based
SW480 = assay: Antiproliferative activity against human SW480 cells assessed as inhibition of cell growth at 20 uM incubated for 72 hrs by SRB assay; format: functional, cell-based
PANC-1 = assay: Antiproliferative activity against human PANC-1 cells assessed as inhibition of cell growth at 20 uM incubated for 72 hrs by SRB assay; format: functional, cell-based
Exportin-1 [23] = molecular target: T1, Exportin-1; assay: Non-covalent inhibition of CRM1 (unknown origin) binding to GST-tagged NES PKI at 20 uM incubated for 2 hrs in presence of DTT by Coomassie brilliant blue staining based pull-down assay
HCT-116 [24] = assay: Antiproliferative activity against human HCT-116 cells assessed as inhibition of cell growth incubated for 72 hrs by CellTiter Glo assay; format: functional, cell-based; conditions: HCT-116, 72 h
SK-N-SH [25] = assay: Antiproliferative activity against human SK-N-SH cells assessed as inhibition of cell growth incubated for 1 hrs by CellTiter Glo assay; format: functional, cell-based
SK-N-SH [26] = assay: Antiproliferative activity against human SK-N-SH cells assessed as inhibition of cell growth incubated for 72 hrs by CellTiter Glo assay; format: functional, cell-based
SiHa [27] = assay: Antiproliferative activity against human SiHa cells assessed as inhibition of cell growth incubated for 72 hrs by CellTiter Glo assay; format: functional, cell-based
SiHa [28] = assay: Antiproliferative activity against human SiHa cells assessed as inhibition of cell growth incubated for 1 hrs by CellTiter Glo assay; format: functional, cell-based
HCT-116 [29] = assay: Antiproliferative activity against human HCT-116 cells assessed as inhibition of cell growth incubated for 1 hrs by CellTiter Glo assay; format: functional, cell-based; conditions: HCT-116, 1 h
[30] = Toxicity in mouse at 100 mg/kg, ip administered for 2 weeks; format: organism-based; conditions: in vivo, 336 h
[31] = Toxicity in mouse assessed as body weight loss at 100 mg/kg, ip administered for 2 weeks; format: organism-based; conditions: in vivo, 336 h

For `Cc1ccc(C)c(N2CCN(c3ccc(C(=O)O)cc3NC(=O)c3ccc(Cl)cc3)CC2)c1`, the inhibition (Exportin-1 [1]) was “Active”, the Ratio (Exportin-1 [2]) was 0.02 and the Kd (Exportin-1 [3]) was 12000 nM. For the same molecule, the inhibition (Exportin-1 [4]) was “inactive” and the inhibition (Exportin-1 [5]) was “Active”.

In the case of `O=C(/C=C\n1cnc(-c2cc(C(F)(F)F)cc(C(F)(F)F)c2)n1)NNc1cnccn1` [SELINEXOR], the IC50 at 72 h [6] is reported as 730 nM, the IC50 (HeLa [7]) is reported as 430 nM and the IC50 (MOLT-4) is reported as 34 nM. The inhibition (Exportin-1 [8]) was “inactive”.

In the case of `O=C(O)c1ccc(N2CCN(c3cc(C(F)(F)F)cc(C(F)(F)F)c3)CC2)c(NC(=O)c2ccc(Br)cc2)c1`, the Activity (A549 [9]) is reported as “Active”, the Activity (HeLa [10]) is reported as “Active” and the Activity (OVCAR-8) is reported as “Active”. For the same molecule, the inhibition [11] was “inactive”, the Activity (MCF7) was “Active” and the Activity (HuCCT-1) was “Active”. The Activity (Ishikawa) was “Active”, the IC50 at 72 h [6] was 30900 nM and the inhibition (Exportin-1 [12]) was “Active”. The Activity (HepG2) was “Active”, the inhibition (Exportin-1 [13]) was “Active” and the Activity (MDA-MB-453) was “Active”. The IC50 (HeLa [7]) was 10200 nM, the Activity (A549 [14]) was “Active” and the Activity (A549 [15]) was “Active”. The Activity (Exportin-1 [16]) was “Active”, the inhibition at 40 µM (A549 [17]) was 100% and the inhibition (A549 [18]) was “Active”. The Kd (Exportin-1 [3]) was 1600 nM, the solubility [19] was under 0.14 µg/mL and the Activity (A2780) was “Active”. For the same molecule, the Activity (A549 [20]) was “Active”, the inhibition (Exportin-1 [21]) was “Active” and the Activity (A549 [22]) was “Active”. The Activity (SW480) was “Active” and the Activity (PANC-1) was “Active”.

With `CC(C)CCNC/C=C/[S+]([O-])c1cc(C(F)(F)F)cc(C(F)(F)F)c1` (stereo unspecified) the inhibition (Exportin-1 [23]) was “inactive”.

For `O=C(O)c1ccc(N2CCN(c3cc(C(F)(F)F)ccc3C(F)(F)F)CC2)c(NC(=O)c2ccc(Br)cc2)c1`, the Activity (A549 [9]) was “Active”, the Activity (HeLa [10]) was “Active” and the Activity (OVCAR-8) was “Active”. For the same molecule, the inhibition [11] was “inactive”, the Activity (MCF7) was “Active” and the Activity (HuCCT-1) was “Active”. The Activity (Ishikawa) was “Active”, the IC50 at 72 h [6] was 40400 nM and the inhibition (Exportin-1 [12]) was “Active”. The Activity (HepG2) was “Active”, the inhibition (Exportin-1 [13]) was “Active” and the Activity (MDA-MB-453) was “Active”. For the same molecule, the IC50 (HeLa [7]) was 15200 nM, the Activity (A549 [14]) was “Active” and the Activity (A549 [15]) was “Active”. For the same molecule, the Activity (Exportin-1 [16]) was “Active”, the inhibition at 40 µM (A549 [17]) was 100% and the inhibition (A549 [18]) was “Active”. For the same molecule, the Kd (Exportin-1 [3]) was 1800 nM, the solubility [19] was under 0.14 µg/mL and the Activity (A2780) was “Active”. The Activity (A549 [20]) was “Active”, the inhibition (Exportin-1 [21]) was “Active” and the Activity (A549 [22]) was “Active”. For the same molecule, the Activity (SW480) was “Active” and the Activity (PANC-1) was “Active”.

Work on `CCC(=C/[C@H](C)C/C=C/C(C)=C/[C@@H](C)C(=O)[C@@H](C)[C@H](O)[C@@H](C)C/C(C)=C/C(=O)O)/C=C/[C@@H]1OC(=O)C=C[C@@H]1C` [LEPTOMYCIN B] yielded an IC50 (HCT-116 [24]) of 0.3 nM, an IC50 (SK-N-SH [25]) of 0.3 nM and an IC50 (SK-N-SH [26]) of 0.3 nM. For the same molecule, the IC50 (SiHa [27]) was 0.3 nM, the IC50 (SiHa [28]) was 0.3 nM and the IC50 (HCT-116 [29]) was 0.3 nM.

For `O=C(O)c1ccc(N2CCN(c3cc(C(F)(F)F)ccc3C(F)(F)F)CC2)c(NC(=O)c2ccc(Cl)cc2)c1`, the Activity (A549 [9]) was “Active”, the Activity (HeLa [10]) was “Active” and the Activity [30] was “Non-Toxic”. For the same molecule, the Activity (OVCAR-8) was “Active”, the inhibition [11] was “inactive” and the Activity (MCF7) was “Active”. The Activity (HuCCT-1) was “Active”, the Activity (Ishikawa) was “Active” and the IC50 at 72 h [6] was 39000 nM. The inhibition (Exportin-1 [12]) was “Active”, the Activity (HepG2) was “Active” and the inhibition (Exportin-1 [13]) was “Active”. For the same molecule, the Activity (MDA-MB-453) was “Active”, the IC50 (HeLa [7]) was 14600 nM and the Activity (A549 [14]) was “Active”. For the same molecule, the Activity (A549 [15]) was “Active”, the Activity (Exportin-1 [16]) was “Active” and the inhibition at 40 µM (A549 [17]) was 100%. For the same molecule, the inhibition (A549 [18]) was “Active”, the Kd (Exportin-1 [3]) was 3600 nM and the solubility [19] was under 0.14 µg/mL. The Activity (A2780) was “Active”, the Activity (A549 [20]) was “Active” and the inhibition (Exportin-1 [21]) was “Active”. The Activity (A549 [22]) was “Active”, the Activity (SW480) was “Active” and the Activity [31] was “Non-Toxic”. For the same molecule, the Activity (PANC-1) was “Active”.
